Like-named read-outs stand apart in the source and are kept apart here.
Columns and labels:
[1] = test system: Chinese Hamster lung fibroblast DC3F cells; assay: Clonogenic survival assay, cytotoxicity in DC3F cells
Procedure: Clonogenic Survival Assay. For a typical clonogenic survival experiment, stock cultures of exponentially growing cells were trypsinized, rinsed, and plated (5×10^5 cells per dish for DC3F and DC3F/C-10 cells; 1×10^6 cells for MCF-7 cells) into 100-mm petri dishes and incubated at 37° C. 18–24 h prior to experimental studies.
Following various experimental protocols with drug incubation and irradiation, cells were trypsinized, rinsed, counted, and plated for […] colony formation. Depending on the anticipated survival level, 10^2 to 10^5 cells were plated per dose point. When higher cell numbers were plated, large petri dishes were used to avoid possible cell-density effect (100-mm instead of 60-mm petri dishes for cell number≧5×10^4). Depending on the treatment protocols, an equivalent amount of DMSO was added into each of the control radiation alone dishes (final DMSO concentration <0.1%).
Following seven to fourteen days of incubation, colonies were fixed with methanol/acetic acid (3:1), stained with crystal violet. Colonies consisting of >50 cells were counted. All survival points were done in triplicate, and experiments were conducted a minimum of two times. Error bars shown in the figures represent standard deviations (SD) and are shown when larger than the symbol.
The DC3F/C-10 cell line was selected from the Chinese Hamster lung fibroblast DC3F cell line in the presence of 1 μM of camptothecin (Albright, N., Radiat. Res., 112:331–340 (1987), and Chen, Y. N., J. Biol. Chem., 265:10073–10080 (1990)). […] In an attempt to determine the importance of TOP1 in mediating the cytotoxic and radiosensitizing effects by INDO derivatives, clonogenic survival assays were performed in DC3F and DC3F/C10 cells.

[2] = test system: TOP1 mutant DC3F/C10 cells; assay: Radiosensitization in DC3F/C10 cells (clonogenic survival with radiation); assay type: cell-based, Chinese hamster; conditions: for Radiation Dose (Gy) at 10% Survival / SER / Induction of RS: DC3F/C10 cells; for Resistance of DC3F/C-10 cells to induction of RS: in comparison to the DC3F cells, Table 4; for Induction of RS: concentrations as high as 10 μg/ml (data not shown)
Procedure: (§1) Clonogenic Survival Assay. […] 18–24 h prior to experimental studies.
(§2) Colonies consisting of >50 cells were counted.
(§3) Irradiation of Cells. Drug-treated and control cells in medium were irradiated using a cobalt-60 source (Eldorado 8; Theratronics, Canada) at a dose rate of 105 cGy/min.
(§4) Analysis of Survival Curves. Survival curves were corrected for cytotoxicity induced by drug alone treatment. Sensitization enhancement ratios (SERs) and standard deviations for survival curves were determined at 10% cell survival. Each SER was calculated by dividing the radiation dose to induce 10% cell survival in the absence of radiosensitizer with the radiation dose to induce 10% cell survival in the presence of radiosensitizer.

DC3F cells = assay: Radiosensitization in DC3F cells (clonogenic survival with radiation); assay type: cell-based, Chinese hamster; conditions: for Induction of RS: concentrations as high as 10 μg/ml (data not shown)
Procedure: as §1, §2, §3, §4

[3] = test system: human breast cancer MCF-7 cells; assay: Clonogenic survival assay with radiation (radiosensitization) in MCF-7 cells; assay type: cell-based; conditions: for ER (SER per footnote c, sensitization enhancement ratio): 2 μg/ml 1 h before radiation, at 10% survival; for Dq (width of the shoulder of the radiation survival curve): SHMT model fit, FIG. 3B; for Induction of RS / enhancement of radiocytotoxicity: one-hour preincubation with 2 μg/ml, FIG. 2; for RT dose (Gy) at 10% survival: pre-treated 2 μg/ml 1 h, rinsed, then radiation; for Enhancement of radiocytotoxicity: 10 μg/ml (data not shown)
Procedure: as §1, §2, §3, §4
The updated programs developed by Dr. N. Albright (San Rafael, Calif.) (Albright, N., Radiat. Res., 112:331–340 (1987)) were used for curve fitting for MCF-7 cells with the linear quadratic (LQ) and the single hit multi-target (SHMT) models. Both the LQ and SHMT models gave qualitatively good fits. The fit with the SHMT model was used for the present study.

[4] = target: T1, covalent topoisomerase-DNA cross-links in CHO cells (Cricetulus griseus, UniProt Q07050, S505G); assay: In vivo K+-SDS co-precipitation assay for protein-DNA cross-links; assay type: cell-based, Chinese hamster; set-up: key to Protein-DNA cross-links: +++: high activity; ++: modest activity; +: low activity; conditions: 30-min drug treatment, based on FIG. 5
T1 construct: endogenous in cells; host or cells: Chinese hamster ovary CHO cells
T1 sequence (Q07050 2-767 S505G): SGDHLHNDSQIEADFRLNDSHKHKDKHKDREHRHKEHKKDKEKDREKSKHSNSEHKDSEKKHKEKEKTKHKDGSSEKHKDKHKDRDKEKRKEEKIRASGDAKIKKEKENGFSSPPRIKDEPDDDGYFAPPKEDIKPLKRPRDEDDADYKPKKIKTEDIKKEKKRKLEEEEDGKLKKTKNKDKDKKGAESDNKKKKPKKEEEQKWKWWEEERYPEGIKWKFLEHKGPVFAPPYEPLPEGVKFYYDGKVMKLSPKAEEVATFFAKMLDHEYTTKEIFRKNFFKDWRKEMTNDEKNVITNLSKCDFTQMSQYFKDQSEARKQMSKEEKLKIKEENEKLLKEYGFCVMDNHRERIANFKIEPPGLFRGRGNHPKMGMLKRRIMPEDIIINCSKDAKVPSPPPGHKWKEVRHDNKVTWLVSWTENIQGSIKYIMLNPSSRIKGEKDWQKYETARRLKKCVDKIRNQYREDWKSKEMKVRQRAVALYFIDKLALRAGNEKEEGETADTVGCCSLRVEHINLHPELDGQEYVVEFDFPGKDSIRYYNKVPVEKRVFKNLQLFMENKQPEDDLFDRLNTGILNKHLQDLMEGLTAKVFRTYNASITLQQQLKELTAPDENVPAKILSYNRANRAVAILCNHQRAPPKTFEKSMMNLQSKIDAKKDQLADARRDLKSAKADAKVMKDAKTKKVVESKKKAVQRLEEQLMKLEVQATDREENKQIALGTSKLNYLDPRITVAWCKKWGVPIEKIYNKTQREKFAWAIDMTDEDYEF
Text: In vivo K^+-SDS co-precipitation assay for protein-DNA cross-links. The K^+-SDS co-precipitation assay as described previously (Chen, Y. N., et al., J. Biol. Chem., 265:10073–10080 (1990)) was used to quantify the formation of covalent topoisomerase-DNA cross-links in drug-treated cells.
Briefly, the DNA in logarithmic growing Chinese hamster CHO cells was overnight-labeled in medium containing 1 μCi/ml of [mehtyl-^3H] thymidine. These cells were then trypsinized and diluted in fresh medium before aliquoted into a 24-well plate. After overnight incubation, the labeled cells were treated with various concentrations of drugs for 30 min, washed with phosphate-buffered saline once, and lysed by adding 1 ml of prewarmed lysis solution (1.25% SDS, 5 mM EDTA, 0.4 mg/ml salmon sperm DNA, pH 8.0, 65° C.).
Following shearing chromosomal DNA by passing the lysate through a 19-gauge needle, the sample was transferred to a tube containing 0.25 ml of 325 mM KCl. The sample was vortexed vigorously for 10 s, cooled on ice for 10 min and centrifuged at 3000 rpm for 10 min at 4° C.
The pellet was then resuspended in 1 ml of a wash solution (100 mM KCl, 1 mM EDTA, 0.1 mg/ml salmon sperm DNA, 10 mM Tris-HCl, pH 8.0) and placed at 65° C. for 10 min with occasional mixing. The sample was again cooled on ice for 10 min and centrifuged at 3000 rpm for 10 min at 4° C. After the pellet from each sample was washed again, the pellet was finally resuspended in 0.2 ml of 65° C. water and added to 5 ml of scintillation fluid to determine radioactive counts.
The background precipitable counts were obtained by treating the lysate with proteinase K (400 μg/ml) at 65° C. for 2 h. Data are arithmetic means (±SD) of three determinations, and the background counts have been subtracted.

[5] = target: camptothecin-resistant TOP1 mutant F361S (Homo sapiens, UniProt P11387, F361S); conditions: published work; cited from earlier work
Chain of camptothecin-resistant TOP1 mutant F361S (P11387 whole entry F361S): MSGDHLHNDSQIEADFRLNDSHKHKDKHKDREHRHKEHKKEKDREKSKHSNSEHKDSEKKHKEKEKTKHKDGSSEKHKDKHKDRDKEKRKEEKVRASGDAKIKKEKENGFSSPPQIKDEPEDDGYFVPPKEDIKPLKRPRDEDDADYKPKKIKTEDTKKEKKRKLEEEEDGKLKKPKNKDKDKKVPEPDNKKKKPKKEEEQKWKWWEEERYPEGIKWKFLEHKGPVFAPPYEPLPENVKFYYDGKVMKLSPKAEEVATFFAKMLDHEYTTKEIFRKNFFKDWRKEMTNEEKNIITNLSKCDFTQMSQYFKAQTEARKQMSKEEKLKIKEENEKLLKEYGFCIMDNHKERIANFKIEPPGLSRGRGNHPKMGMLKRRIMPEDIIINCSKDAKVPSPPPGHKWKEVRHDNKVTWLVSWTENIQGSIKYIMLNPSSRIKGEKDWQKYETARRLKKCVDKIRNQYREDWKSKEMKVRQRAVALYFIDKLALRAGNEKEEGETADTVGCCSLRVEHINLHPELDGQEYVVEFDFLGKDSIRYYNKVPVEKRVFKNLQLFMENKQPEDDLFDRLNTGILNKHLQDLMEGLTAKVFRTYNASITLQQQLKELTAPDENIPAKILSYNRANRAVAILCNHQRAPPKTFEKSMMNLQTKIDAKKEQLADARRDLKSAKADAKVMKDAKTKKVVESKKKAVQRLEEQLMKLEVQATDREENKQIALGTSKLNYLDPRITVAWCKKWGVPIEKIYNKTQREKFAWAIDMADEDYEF

[6] = test system: Chinese hamster CHO cells; assay: Radiosensitization in CHO cells (preliminary, data not shown); assay type: cell-based; conditions: non-cytotoxic concentrations of 2 μg/ml and 10 μg/ml

| Structure (SMILES) | Radiation Dose (Gy) at 10% Survival ([2]; 5.0 μg/ml) [Gy] | SER ([2]; 5.0 μg/ml) | Resistance of DC3F/C-10 cells to induction of RS [2] | Radiation Dose (Gy) at 10% Survival (DC3F cells; 5.0 μg/ml) [Gy] | SER (DC3F cells; 5.0 μg/ml) | ER (SER per footnote c, sensitization enhancement ratio) [3] | Dq (width of the shoulder of the radiation survival curve) [3] | Induction of RS / enhancement of radiocytotoxicity [3] | RT dose (Gy) at 10% survival [3] [Gy] | Protein-DNA cross-links [4] | Cytotoxic effect ([1]; DC3F cells) | Enhancement of radiocytotoxicity [3] | Induction of RS [2] | Induction of RS (DC3F cells) | also measured |
| --- | --- | --- | --- | --- | --- | --- | --- | --- | --- | --- | --- | --- | --- | --- | --- |
| CO[C@H]1[C@H](O)[C@@H](O)[C@H](n2c3c(Cl)cccc3c3c4c(c5c6cccc(Cl)c6[nH]c5c32)C(=O)NC4=O)O[C@@H]1CO [F1, rebeccamycin] | 4.8 | 1.1 | showed resistance to induction of RS | 4.6 | 1.3 | 1.9 | drastically reduced | induction of RS was observed | 3.8 | ++ |  |  |  |  | Cytotoxic effect [1]: lack of cytotoxic effect; Radiation Dose (Gy) at 10% Survival ([2]; 25 μg/ml): 4.5 Gy; SER ([2]; 25 μg/ml): 1.2; Radiation Dose (Gy) at 10% Survival (DC3F cells; 1.0 μg/ml): 4.9 Gy; SER (DC3F cells; 1.0 μg/ml): 1.2 |
| COC1C(CO)OC(n2c3c(Cl)cccc3c3c4c(c5c6cccc(Cl)c6[nH]c5c32)C(=O)N(C)C4=O)C(O)C1O (stereo not shown) [F43] |  |  |  |  |  | 1.0 |  | do not enhance radiocytotoxicity | 7.0 | + | lack of cytotoxic effect | do not enhance radiocytotoxicity |  |  |  |
| COC1C(CO)OC(n2c3ccccc3c3c4c(c5c6ccccc6[nH]c5c32)C(=O)NC4=O)C(O)C1O (stereo not shown) [F71] |  |  |  |  |  | 1.0 |  | do not enhance radiocytotoxicity | 7.2 | +++ |  | do not enhance radiocytotoxicity | incapable of inducing RS | incapable of inducing RS |  |
| COC1C(CO)OC(n2c3ccccc3c3c4c(c5c6ccccc6[nH]c5c32)C(=O)N(O)C4=O)C(O)C1O (stereo not shown) [F7] | 5.2 | 1.0 | showed resistance to induction of RS | 3.9 | 1.5 | 1.7 | drastically reduced | induction of RS was observed | 4.2 | ++ |  |  |  |  | Radiation Dose (Gy) at 10% Survival ([2]; 10 μg/ml): 4.9 Gy; SER ([2]; 10 μg/ml): 1.1; Radiation Dose (Gy) at 10% Survival ([2]; 20 μg/ml): 4.1 Gy; SER ([2]; 20 μg/ml): 1.3; Radiation Dose (Gy) at 10% Survival (DC3F cells; 2.5 μg/ml): 4.6 Gy; SER (DC3F cells; 2.5 μg/ml): 1.3; Radiation Dose (Gy) at 10% Survival (DC3F cells; 10 μg/ml): 3.6 Gy; SER (DC3F cells; 10 μg/ml): 1.7; Cross-resistance of mutant TOP1 [5]: cross-resistant |
| COC1C(CO)OC(n2c3ccccc3c3c4c(c5c6ccccc6[nH]c5c32)C(=O)N(C)C4=O)C(O)C1O (stereo not shown) [F44] |  |  |  |  |  | 1.0 |  | do not enhance radiocytotoxicity | 6.9 | ++ |  | do not enhance radiocytotoxicity | incapable of inducing RS | incapable of inducing RS |  |
| COC1C(CO)OC(n2c3ccccc3c3c4c(c5c6ccccc6[nH]c5c32)C(=O)OC4=O)C(O)C1O (stereo not shown) [F5] |  |  |  |  |  | 1.7 | drastically reduced | induction of RS was observed | 4.2 | + | lack of cytotoxic effect |  |  |  | Induction of RS [6]: potent inducer of RS |
